What was measured:
[1] = target: recombinant human autotaxin (Homo sapiens (Human), UniProt Q13822); assay: Inhibition of Autotaxin as Measured by Choline Release; assay type: biochemical; settings: LPC 16:0 30 μM substrate, 37° C. for 1 hour, 4 parameter curve fit
Method: The purpose of this assay is to detect autotaxin inhibition using a choline release assay.
Test compound (10 mM stocks in 100% DMSO) is serially diluted in 100% DMSO resulting in 10 concentrations of 100× inhibitor in half area 96 well plates (Corning 3992). Each of these 10 wells in 100% DMSO is diluted 1:33.33 in assay buffer in round bottom 96 well plates (Fisher 12565502) resulting in 3× concentrations in well containing 3% DMSO. The assay buffer is 50 mM Tris pH8.0, 5 mM KCl, 1 mM CaCl2, 1 mM MgCl2, 0.01% TRITON™ X-100 (Sigma T9284) and 0.01% fatty acid free bovine serum albumin (Sigma A8806). A 20 μl aliquot of each 3× test compound is then added to black flat bottom 96 well plates (Corning 3991) in singlicate. A 20 μl aliquot per well of 3× recombinant human autotaxin, (Echelon, E-4000) (full length human autotaxin with a C-terminal His tag transfected into 293E cells and purified via nickel chelate and size exclusion chromatography) is then added to every well except for the no enzyme control wells. A 20 μl aliquot per well of assay buffer is added to the no enzyme control wells. […] The resorufin on the plates is measured with a SpectraMax Gemini EM fluorometer at excitation-emission wavelengths of 530-590 nm using SoftMax Pro 4.8 software. IC50s are calculated using 4 parameter curve fits. […]

endogenous autotaxin = endogenous autotaxin (Homo sapiens (Human), UniProt Q13822); assay: Autotaxin Mediated Inhibition of LPA in the Presence of Human Plasma; assay type: biochemical; settings: 90% pooled human plasma, 3 hours at 37° C., total LPA by mass spec
Source text: The following assay is intended to measure autoaxin mediated inhibition of LPA. This assay is a tool that can be used to identify autotaxin-mediated LPA inhibitor compounds when it is used to test compounds that have been identified as autotaxin inhibitors. LPA biosynthesis through autotaxin is believed to the source of LPA for LPA1 mediated neuropathic pain. Makoto Inoue, et. al, “Autotaxin, a synthetic enzyme of lysophosphatidic acid (LPA), mediates the induction of nerve-injured neuropathic pain”, Molecular Pain, 2008, 4:6. Inhibition of the autotaxin mediated LPA biosynthesis is supported by the results of this assay.
Units of plasma from healthy human female donors collected in sodium heparin (Lampire Biologicals) are pooled, aliquoted and stored at −80° C. […] A 400 μl aliquot of extraction buffer (50% methanol, 49.9% acetonitrile, 0.1% acetic acid) containing LPA internal standards (50 ng/ml D5 deuterium LPA 16:0 and 50 ng/ml D5 deuterium LPA 18:0) is added to each well and the total LPA in each sample is determined by mass spec analysis. Percent inhibition of LPA is calculated according to the following formula: 100−(3 hour plasma+test compound−0 hour plasma no test compound control)/(3 hour plasma no test compound control−0 hour plasma no test compound control)×100
[formula] IC50 values are calculated using 4 parameter curve fitting. […]

| IC50 [1] | IC50 (endogenous autotaxin) | SMILES |
| --- | --- | --- |
| < 1.7 nM | 7 nM | O=C(c1cc(-c2cnn[nH]2)ccn1)N1CCc2nc(NC3Cc4ccccc4C3)ncc2C1 [Example 9, [2-(indan-2-ylamino)-7,8-dihydro-5H-pyrido[4,3-d]pyrimidin-6-yl]-[4-(1H-triazol-5-yl)-2-pyridyl]methanone] |
| < 1.7 nM | 5.4 nM | O=C(c1cnn(Cc2c[nH]nn2)c1)N1CCc2nc(NC3Cc4ccccc4C3)ncc2C1 [Example 1, [2-(indan-2-ylamino)-7,8-dihydro-5H-pyrido[4,3-d]pyrimidin-6-yl]-[1-(1H-triazol-4-ylmethyl)pyrazol-4-yl]methanone] |

— patent publication US9550774B2, “Dihydropyrido pyrimidine compounds as autotaxin inhibitors” (Eli Lilly and Company, priority 2013, dated 2017)
